According to publication PMC3570588 (ChemMedChem, 2012):
Converted amounts (≈) assume the structure as drawn.

Legend:
S. aureus DHFR = S. aureus DHFR (Staphylococcus aureus, UniProt P0A017); assay type: biochemical; conditions: read-out: Ki, nM (SEM) S. aureus 29213; pH 7.0, 30 °C
B. anthracis Sterne = assay type: cell-based, Bacillus anthracis
S. aureus 29213 = assay type: cell-based, Staphylococcus aureus
B. anthracis DHFR = B. anthracis DHFR (Bacillus anthracis, UniProt Q81R22); assay type: biochemical; conditions: read-out: Ki, nM (SEM) B. anthracis Sterne; pH 7.0, 30 °C
B. anthracis DHFR, sequence (Q81R22 1-162): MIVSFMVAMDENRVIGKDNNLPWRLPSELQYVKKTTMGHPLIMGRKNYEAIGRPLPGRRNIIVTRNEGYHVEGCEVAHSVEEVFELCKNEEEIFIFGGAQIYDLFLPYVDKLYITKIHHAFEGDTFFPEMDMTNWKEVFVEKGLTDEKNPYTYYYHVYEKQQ

S. aureus DHFR, sequence (P0A017 whole entry): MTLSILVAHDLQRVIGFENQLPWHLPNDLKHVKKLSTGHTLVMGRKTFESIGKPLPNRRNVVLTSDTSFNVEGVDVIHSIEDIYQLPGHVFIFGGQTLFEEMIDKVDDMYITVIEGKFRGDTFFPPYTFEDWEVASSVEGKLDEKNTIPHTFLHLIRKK

Row | Compound | Ki (S. aureus DHFR) | MIC, μg/mL B. anthracis Sterne (B. anthracis Sterne) | MIC, μg/mL S. aureus 29213 (S. aureus 29213) | Ki (B. anthracis DHFR)
1 | CCCc1nc(N)nc(N)c1Cc1cc(/C=C/C(=O)N2N=Cc3ccccc3C2CCC)c(OC)c(OC)c1 (racemic) [Compound 11c, (±)-(E)-3-5-[(2,4-Diamino-6-propyl-5-pyrimidinyl)methyl]-2,3-dimethoxyphenyl}-1-(1-propyl-2(1H)-phthalazinyl)-2-propen-1-one] | 4 nM | 1 µg/mL (≈ 1.89 µM) | 1 to 2 µg/mL | 
2 | CCc1nc(N)nc(N)c1Cc1cc(/C=C/C(=O)N2N=Cc3ccccc3C2C=C(C)C)c(OC)c(OC)c1 (racemic) [Compound 12b, (±)-(E)-3-{5-[(2,4-Diamino-6-ethyl-5-pyrimidinyl)methyl]-2,3-dimethoxyphenyl}-1-(1-isobutenyl-2(1H)-phthalazinyl)-2-propen-1-one] | 2.9 nM | 4 µg/mL (≈ 7.6 µM) | 0.25 to 0.5 µg/mL | 25.4 nM
3 | CCCC1c2ccccc2C=NN1C(=O)/C=C/c1cc(Cc2c(C)nc(N)nc2N)cc(OC)c1OC (racemic) [Compound 11a, (±)-(E)-3-{5-[(2,4-Diamino-6-methyl-5-pyrimidinyl)methyl]-2,3-dimethoxyphenyl}-1-(1-propyl-2(1H)-phthalazinyl)-2-propen-1-one] | 4.5 nM | 8 µg/mL (≈ 16 µM) | 0.5 µg/mL (≈ 0.999 µM) | 72.4 nM
4 | COc1cc(Cc2c(C)nc(N)nc2N)cc(/C=C/C(=O)N2N=Cc3ccccc3C2C=C(C)C)c1OC (racemic) [Compound 12a, (±)-(E)-3-{5-[(2,4-Diamino-6-methyl-5-pyrimidinyl)methyl]-2,3-dimethoxyphenyl}-1-(1-isobutenyl-2(1H)-phthalazinyl)-2-propen-1-one] | 3.4 nM | 4 µg/mL (≈ 7.8 µM) | 0.25 to 0.5 µg/mL | 14.3 nM
5 | CCCC1c2ccccc2C=NN1C(=O)/C=C/c1cc(Cc2c(N)nc(N)nc2CC)cc(OC)c1OC (racemic) [Compound 11b, (±)-(E)-3-5-[(2,4-Diamino-6-ethyl-5-pyrimidinyl)methyl]-2,3-dimethoxyphenyl}-1-(1-propyl-2(1H)-phthalazinyl)-2-propen-1-one] | 3.6 nM | 4 µg/mL (≈ 7.77 µM) | 0.5 to 2 µg/mL | 
6 | CCCc1nc(N)nc(N)c1Cc1cc(/C=C/C(=O)N2N=Cc3ccccc3C2C=C(C)C)c(OC)c(OC)c1 (racemic) [Compound 12c, (±)-(E)-3-{5-[(2,4-Diamino-6-propyl-5-pyrimidinyl)methyl]-2,3-dimethoxyphenyl}-1-(1-isobutenyl-2(1H)-phthalazinyl)-2-propen-1-one] | 4.1 nM | 2 µg/mL (≈ 3.7 µM) | 2 µg/mL (≈ 3.7 µM) | 
